Measurements as given in ChEMBL document CHEMBL3352578 (J Med Chem, 2014).
pEC50: −log10 of the molar value. The source made the active and inactive calls. The calls are words filed in the database; no cut-off is given here.

Legend:
[1] = target: T1, Metabotropic glutamate receptor 2 (Homo sapiens, UniProt Q14416); experiment: Positive allosteric modulation of human mGlu2 receptor expressed in CHO cells assessed as potentiation of glutamate-induced effect incubated for 30 mins prior to [35S]GTPgamma addition measured after 30 mins; type: functional, cell-based
Target sequence in this assay (Q14416 whole entry): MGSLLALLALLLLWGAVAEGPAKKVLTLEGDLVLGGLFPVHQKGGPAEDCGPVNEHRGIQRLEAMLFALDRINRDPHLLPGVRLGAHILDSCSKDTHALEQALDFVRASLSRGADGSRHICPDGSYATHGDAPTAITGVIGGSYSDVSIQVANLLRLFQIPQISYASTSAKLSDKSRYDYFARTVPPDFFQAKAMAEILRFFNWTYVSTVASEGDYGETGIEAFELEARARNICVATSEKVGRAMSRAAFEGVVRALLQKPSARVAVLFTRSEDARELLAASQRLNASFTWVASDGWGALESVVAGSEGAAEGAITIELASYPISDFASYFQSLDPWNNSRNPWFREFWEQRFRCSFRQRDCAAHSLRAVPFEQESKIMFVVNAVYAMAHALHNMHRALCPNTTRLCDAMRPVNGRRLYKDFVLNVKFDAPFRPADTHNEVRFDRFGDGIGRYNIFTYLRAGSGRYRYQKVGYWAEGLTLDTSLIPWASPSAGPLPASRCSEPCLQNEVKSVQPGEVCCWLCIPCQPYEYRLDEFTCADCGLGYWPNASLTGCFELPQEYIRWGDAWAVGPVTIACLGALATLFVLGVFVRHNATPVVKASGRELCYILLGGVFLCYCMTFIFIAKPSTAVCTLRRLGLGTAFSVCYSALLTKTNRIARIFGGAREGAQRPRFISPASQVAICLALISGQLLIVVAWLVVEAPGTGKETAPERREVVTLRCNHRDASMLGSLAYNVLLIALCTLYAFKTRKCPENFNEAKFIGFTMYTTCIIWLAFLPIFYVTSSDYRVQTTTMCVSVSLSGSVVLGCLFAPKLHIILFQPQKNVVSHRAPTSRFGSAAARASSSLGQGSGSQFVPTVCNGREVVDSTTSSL

[2] = Metabolic stability in human liver microsomes assessed as compound metabolized at 5 uM after 15 mins by MS/MS analysis in presence of NADPH; type: ADME; settings: read-out: Drug metabolism
hERG (KCNH2) = hERG (KCNH2) (Homo sapiens, UniProt Q12809); experiment: Inhibition of human ERG channel transfected in HEK293 cells at 3 uM by patch clamp technique; type: cell-based; settings: HEK293 cells transfected with human ERG channel
Sequence of hERG (KCNH2) (Q12809 whole entry): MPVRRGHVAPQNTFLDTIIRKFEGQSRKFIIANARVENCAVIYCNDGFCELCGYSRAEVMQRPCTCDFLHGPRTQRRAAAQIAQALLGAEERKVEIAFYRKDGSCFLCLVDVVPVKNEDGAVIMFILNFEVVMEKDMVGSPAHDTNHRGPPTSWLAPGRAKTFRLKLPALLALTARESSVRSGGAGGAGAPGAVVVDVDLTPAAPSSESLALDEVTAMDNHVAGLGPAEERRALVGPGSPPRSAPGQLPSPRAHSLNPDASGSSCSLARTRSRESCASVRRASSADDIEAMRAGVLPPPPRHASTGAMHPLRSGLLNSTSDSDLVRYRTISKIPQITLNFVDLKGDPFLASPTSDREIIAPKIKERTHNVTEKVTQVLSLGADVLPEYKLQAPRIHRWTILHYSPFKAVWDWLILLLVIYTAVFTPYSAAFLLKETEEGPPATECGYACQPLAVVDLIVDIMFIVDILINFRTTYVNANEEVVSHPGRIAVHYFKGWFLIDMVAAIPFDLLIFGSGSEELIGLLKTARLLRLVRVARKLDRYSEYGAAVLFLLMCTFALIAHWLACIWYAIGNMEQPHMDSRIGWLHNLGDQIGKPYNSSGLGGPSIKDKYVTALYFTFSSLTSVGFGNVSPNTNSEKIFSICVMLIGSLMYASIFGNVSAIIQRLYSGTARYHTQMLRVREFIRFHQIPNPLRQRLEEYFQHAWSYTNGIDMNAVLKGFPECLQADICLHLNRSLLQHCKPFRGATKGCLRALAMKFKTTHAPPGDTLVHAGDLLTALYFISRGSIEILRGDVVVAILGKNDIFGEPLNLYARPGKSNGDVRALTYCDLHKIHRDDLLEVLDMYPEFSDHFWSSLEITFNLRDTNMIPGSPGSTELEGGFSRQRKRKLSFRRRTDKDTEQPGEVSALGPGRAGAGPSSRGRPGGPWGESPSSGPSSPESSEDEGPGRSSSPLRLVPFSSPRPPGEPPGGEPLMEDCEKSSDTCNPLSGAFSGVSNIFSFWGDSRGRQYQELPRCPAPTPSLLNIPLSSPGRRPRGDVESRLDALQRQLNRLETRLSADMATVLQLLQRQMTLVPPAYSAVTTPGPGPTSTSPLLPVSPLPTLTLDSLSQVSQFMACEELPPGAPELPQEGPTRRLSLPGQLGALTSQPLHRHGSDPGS

[3] = Metabolic stability in rat liver microsomes assessed as compound metabolized at 5 uM after 15 mins by MS/MS analysis in presence of NADPH; type: ADME; settings: read-out: Drug metabolism
[4] = target: T1, Metabotropic glutamate receptor 2; experiment: Positive allosteric modulation of human mGlu2 receptor expressed in CHO cells assessed as potentiation of glutamate-induced effect incubated for 30 mins prior to [35S]GTPgamma addition measured after 30 mins relative to glutamate; type: functional, cell-based
Target sequence in this assay (Q14416 19-872 limits assumed): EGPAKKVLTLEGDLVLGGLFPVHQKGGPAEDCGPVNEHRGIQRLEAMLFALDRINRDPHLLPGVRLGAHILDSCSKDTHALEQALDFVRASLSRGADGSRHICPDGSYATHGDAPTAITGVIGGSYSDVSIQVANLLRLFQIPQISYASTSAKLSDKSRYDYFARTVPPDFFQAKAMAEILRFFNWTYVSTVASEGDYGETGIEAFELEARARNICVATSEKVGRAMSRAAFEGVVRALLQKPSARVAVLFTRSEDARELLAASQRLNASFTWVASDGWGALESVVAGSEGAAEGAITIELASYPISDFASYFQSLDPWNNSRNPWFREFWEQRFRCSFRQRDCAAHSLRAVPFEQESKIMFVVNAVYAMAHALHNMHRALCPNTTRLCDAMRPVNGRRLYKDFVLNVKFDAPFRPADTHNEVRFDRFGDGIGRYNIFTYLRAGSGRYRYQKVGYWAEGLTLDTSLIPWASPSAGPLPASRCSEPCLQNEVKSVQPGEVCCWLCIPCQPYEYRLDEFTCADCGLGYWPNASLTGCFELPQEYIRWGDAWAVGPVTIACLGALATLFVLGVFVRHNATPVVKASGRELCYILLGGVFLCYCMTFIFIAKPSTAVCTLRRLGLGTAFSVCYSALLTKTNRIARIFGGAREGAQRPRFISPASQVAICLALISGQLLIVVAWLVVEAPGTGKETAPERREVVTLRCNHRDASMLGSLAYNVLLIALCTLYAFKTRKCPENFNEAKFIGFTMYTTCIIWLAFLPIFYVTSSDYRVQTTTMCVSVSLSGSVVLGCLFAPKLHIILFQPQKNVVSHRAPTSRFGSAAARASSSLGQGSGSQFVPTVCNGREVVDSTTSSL

[5] = Oral bioavailability in Sprague-Dawley rat at 10 mg/kg; type: ADME, organism-based; settings: in vivo
Rattus norvegicus [6] = experiment: Positive allosteric modulation of mGlu2 receptor in Sprague-Dawley rat sleep-wake EEG paradigm model assessed as effect on light sleep stage at 3 mg/kg, po after 4 hrs by electroencephalogram analysis; type: functional, organism-based; parameters: dose 3 mg/kg
Rattus norvegicus [7] = experiment: Positive allosteric modulation of mGlu2 receptor in Sprague-Dawley rat sleep-wake EEG paradigm model assessed as effect on intermediate state at 3 mg/kg, po after 4 hrs by electroencephalogram analysis; type: functional, organism-based; parameters: dose 3 mg/kg
Rattus norvegicus [8] = experiment: Positive allosteric modulation of mGlu2 receptor in po dosed Sprague-Dawley rat assessed effect on sleep-wake EEG paradigm after 20 hrs by electroencephalogram analysis; type: functional
[9] = Elimination half life in Sprague-Dawley rat at 2.5 mg/kg, iv; type: ADME, organism-based; parameters: dose 2.5 mg/kg, route intravenous; settings: in vivo, read-out: beta t1/2 (converted)
[10] = Tmax in Sprague-Dawley rat at 2.5 mg/kg, iv; type: ADME, organism-based; parameters: dose 2.5 mg/kg, route intravenous; settings: in vivo
[11] = Clearance in Sprague-Dawley rat at 2.5 mg/kg, iv; type: ADME, organism-based; parameters: dose 2.5 mg/kg, route intravenous; settings: in vivo
[12] = AUC (0 to infinity) in Sprague-Dawley rat at 10 mg/kg, po; type: ADME, organism-based; parameters: time infinity, dose 10 mg/kg, route oral; settings: plasma
Rattus norvegicus [13] = experiment: Positive allosteric modulation of mGlu2 receptor in Sprague-Dawley rat sleep-wake EEG paradigm model assessed as effect on deep sleep stage at 3 mg/kg, po after 4 hrs by electroencephalogram analysis; type: functional, organism-based; parameters: dose 3 mg/kg
Rattus norvegicus [14] = experiment: Positive allosteric modulation of mGlu2 receptor in Sprague-Dawley rat sleep-wake EEG paradigm model assessed as reduction in REM sleep at 3 mg/kg, po after 4 hrs by electroencephalogram analysis; type: functional, organism-based; parameters: dose 3 mg/kg
Rattus norvegicus [15] = experiment: Positive allosteric modulation of mGlu2 receptor in Sprague-Dawley rat sleep-wake EEG paradigm model assessed as effect on active wake stage at 3 mg/kg, po after 4 hrs by electroencephalogram analysis; type: functional, organism-based; parameters: dose 3 mg/kg
Rattus norvegicus [16] = experiment: Positive allosteric modulation of mGlu2 receptor in Sprague-Dawley rat sleep-wake EEG paradigm model assessed as effect on passive wake stage at 3 mg/kg, po after 4 hrs by electroencephalogram analysis; type: functional, organism-based; parameters: dose 3 mg/kg
[17] = Ratio of drug level in brain to plasma in Swiss mouse at 10 mg/kg, sc after 1 hr; type: ADME, organism-based; parameters: dose 10 mg/kg, route subcutaneous; settings: brain and plasma, read-out: BPR
[18] = Cmax in Sprague-Dawley rat at 10 mg/kg, po; type: ADME, organism-based; parameters: dose 10 mg/kg, route oral; settings: in vivo

N#Cc1c(N2CCC(c3ccc(F)cc3)CC2)ccn(CC2CC2)c1=O
pEC50 [1]: 7.05 | metabolised at 0.25 h, 5 µM [2]: 31% | inhibition at 3 µM (hERG (KCNH2)): 89% | metabolised at 0.25 h, 5 µM [3]: 36% | Emax [4]: 258%

CC(C)CCn1ccc(N2CCN(Cc3ccccc3)CC2)c(C#N)c1=O
pEC50 [1]: 5.33 | metabolised at 0.25 h, 5 µM [2]: 38% | metabolised at 0.25 h, 5 µM [3]: 85% | Emax [4]: 304%

N#Cc1c(N2CCC(c3ccccc3)CC2)ccn(CC2CCC2)c1=O
pEC50 [1]: 7.26 | metabolised at 0.25 h, 5 µM [2]: 46% | metabolised at 0.25 h, 5 µM [3]: 86% | Emax [4]: 269%

CC(C)CCn1ccc(-c2ccccc2)c(C#N)c1=O
metabolised at 0.25 h, 5 µM [2]: 36% | metabolised at 0.25 h, 5 µM [3]: 100% | Emax [4]: 135%

N#Cc1c(N2CCC(c3cc(F)cc(F)c3)CC2)ccn(CC2CC2)c1=O
pEC50 [1]: 6.82 | metabolised at 0.25 h, 5 µM [2]: 30% | inhibition at 3 µM (hERG (KCNH2)): 95% | metabolised at 0.25 h, 5 µM [3]: 45% | Emax [4]: 234%

N#Cc1c(N2CCC(c3ccc(F)cc3F)CC2)ccn(CC2CC2)c1=O
pEC50 [1]: 7.17 | metabolised at 0.25 h, 5 µM [2]: 17% | metabolised at 0.25 h, 5 µM [3]: 34% | Emax [4]: 272%

CC(C)CCn1ccc(N2CCCC(c3ccccc3)C2)c(C#N)c1=O (stereo unspecified)
pEC50 [1]: 5.48 | metabolised at 0.25 h, 5 µM [2]: 80% | metabolised at 0.25 h, 5 µM [3]: 98% | Emax [4]: 231%

N#Cc1c(N2CCC(c3ccccc3Cl)CC2)ccn(CC2CC2)c1=O
pEC50 [1]: 7.31 | metabolised at 0.25 h, 5 µM [2]: 22% | metabolised at 0.25 h, 5 µM [3]: 34% | Emax [4]: 259%

CCCCn1ccc(N2CCC(c3ccccc3)CC2)c(C#N)c1=O
pEC50 [1]: 7.02 | metabolised at 0.25 h, 5 µM [2]: 30% | metabolised at 0.25 h, 5 µM [3]: 62% | Emax [4]: 309%

N#Cc1c(N2CCC(c3ccccc3)CC2)ccn(CCC2CC2)c1=O
pEC50 [1]: 6.75 | metabolised at 0.25 h, 5 µM [2]: 50% | metabolised at 0.25 h, 5 µM [3]: 61% | Emax [4]: 316%

CC(C)Cn1ccc(N2CCC(c3ccccc3)CC2)c(C#N)c1=O
pEC50 [1]: 6.55 | metabolised at 0.25 h, 5 µM [2]: 37% | metabolised at 0.25 h, 5 µM [3]: 47% | Emax [4]: 316%

COc1ccccc1C1CCN(c2ccn(CC3CC3)c(=O)c2C#N)CC1
pEC50 [1]: 7.46 | metabolised at 0.25 h, 5 µM [2]: 53% | inhibition at 3 µM (hERG (KCNH2)): 65% | metabolised at 0.25 h, 5 µM [3]: 68% | Emax [4]: 265%

N#Cc1c(N2CCC(c3ccccc3F)CC2)ccn(CC2CC2)c1=O
pEC50 [1]: 7.09 | metabolised at 0.25 h, 5 µM [2]: 30% | inhibition at 3 µM (hERG (KCNH2)): 75% | metabolised at 0.25 h, 5 µM [3]: 42% | Emax [4]: 282%

CC(C)CCn1ccc(N(C)Cc2ccccc2)c(C#N)c1=O
pEC50 [1]: 4.97 | metabolised at 0.25 h, 5 µM [2]: 69% | metabolised at 0.25 h, 5 µM [3]: 100% | Emax [4]: 249%

CC(C)CCn1ccc(N2CCc3ccccc3C2)c(C#N)c1=O
pEC50 [1]: 6.06 | metabolised at 0.25 h, 5 µM [2]: 74% | metabolised at 0.25 h, 5 µM [3]: 100% | Emax [4]: 310%

CC(C)CCn1ccc(OCc2ccccc2)c(C#N)c1=O
pEC50 [1]: 5.53 | metabolised at 0.25 h, 5 µM [2]: 22% | metabolised at 0.25 h, 5 µM [3]: 90% | Emax [4]: 173%

CC(C)CCn1ccc(N2CCN(c3ccccc3)CC2)c(C#N)c1=O
pEC50 [1]: 6.18 | metabolised at 0.25 h, 5 µM [2]: 50% | metabolised at 0.25 h, 5 µM [3]: 90% | Emax [4]: 118%

N#Cc1c(N2CCC(c3ccc(Cl)cc3)CC2)ccn(CC2CC2)c1=O
pEC50 [1]: 7.32 | metabolised at 0.25 h, 5 µM [2]: 28% | metabolised at 0.25 h, 5 µM [3]: 21% | Emax [4]: 249%

CC(C)CCn1ccc(N2CCC(c3ccccc3)CC2)c(C#N)c1=O
pEC50 [1]: 6.99 | metabolised at 0.25 h, 5 µM [2]: 28% | metabolised at 0.25 h, 5 µM [3]: 97% | Emax [4]: 268%

N#Cc1c(N2CCC(c3c(F)cccc3F)CC2)ccn(CC2CC2)c1=O
pEC50 [1]: 7.51 | metabolised at 0.25 h, 5 µM [2]: 18% | inhibition at 3 µM (hERG (KCNH2)): 86% | metabolised at 0.25 h, 5 µM [3]: 42% | Emax [4]: 291%

N#Cc1c(N2CCC(c3ccccc3)CC2)ccn(CCCC(F)(F)F)c1=O
pEC50 [1]: 6.45 | metabolised at 0.25 h, 5 µM [2]: 18% | metabolised at 0.25 h, 5 µM [3]: 43% | Emax [4]: 302%

O=c1c(C(F)(F)F)c(N2CCC(c3ccccc3)CC2)ccn1CC1CC1
metabolised at 0.25 h, 5 µM [2]: 33% | metabolised at 0.25 h, 5 µM [3]: 89% | Emax [4]: 239%

CC(C)CCn1ccc(CCc2ccccc2)c(C#N)c1=O
pEC50 [1]: 6.44 | metabolised at 0.25 h, 5 µM [2]: 91% | metabolised at 0.25 h, 5 µM [3]: 99% | Emax [4]: 168%

CC(C)CCn1ccc(N2CCCCC2)c(C#N)c1=O
pEC50 [1]: 4.50 | metabolised at 0.25 h, 5 µM [2]: 67% | metabolised at 0.25 h, 5 µM [3]: 100% | Emax [4]: 185%

N#Cc1c(N2CCC(c3cccc(C(F)(F)F)c3)CC2)ccn(CC2CC2)c1=O
pEC50 [1]: 7.34 | metabolised at 0.25 h, 5 µM [2]: 35% | inhibition at 3 µM (hERG (KCNH2)): 97% | metabolised at 0.25 h, 5 µM [3]: 39% | Emax [4]: 191%

CC(C)CCn1ccc(N2CCN(c3ccccn3)CC2)c(C#N)c1=O
pEC50 [1]: 5.51 | metabolised at 0.25 h, 5 µM [2]: 51% | metabolised at 0.25 h, 5 µM [3]: 54% | Emax [4]: 304%

CC(C)Cn1ccc(N2CCC(c3ccccc3)CC2)c(Cl)c1=O
bioavailability [5]: 25% | Activity (Rattus norvegicus [6]): inactive | Activity (Rattus norvegicus [7]): inactive | metabolised at 0.25 h, 5 µM [2]: 12% | MEC (Rattus norvegicus [8]): 407 ng/mL | minimal effective dose (Rattus norvegicus [8]; Rattus norvegicus, Sprague-Dawley, po, 20 h, read-out: MED): 3 mg/kg | half-life [9]: 156 min | Tmax [10]: 42 min | clearance [11]: 13 mL/min/kg | inhibition at 3 µM (hERG (KCNH2)): 24% | AUC(0-inf) [12]: 3460 ng·h/mL | metabolised at 0.25 h, 5 µM [3]: 31% | Activity (Rattus norvegicus [13]): inactive | Activity (Rattus norvegicus [14]): Active | Emax [4]: 260% | Activity (Rattus norvegicus [15]): inactive | Activity (Rattus norvegicus [16]): inactive | Kp at 1 h [17]: 0.8 | Cmax [18]: 1360 ng/mL

COc1ccc(C2CCN(c3ccn(CC4CC4)c(=O)c3C#N)CC2)cc1
pEC50 [1]: 7.01 | metabolised at 0.25 h, 5 µM [2]: 76% | metabolised at 0.25 h, 5 µM [3]: 57% | Emax [4]: 257%

N#Cc1c(N2CCC(c3cccc(F)c3)CC2)ccn(CC2CC2)c1=O
pEC50 [1]: 6.85 | metabolised at 0.25 h, 5 µM [2]: 35% | inhibition at 3 µM (hERG (KCNH2)): 87% | metabolised at 0.25 h, 5 µM [3]: 37% | Emax [4]: 268%
